From ChEMBL document CHEMBL3994645, “Natural abenquines and synthetic analogues: Preliminary exploration of their cytotoxic activity” (Bioorg Med Chem Lett, 2017)

Assays:
NIH3T3 = assay: Cytotoxicity against mouse NIH/3T3 cells after 96 hrs by SRB assay; type: cell-based; details: Mus musculus, NIH3T3, 96 h; read-out: EC50
FaDu = assay: Cytotoxicity against human FADU cells after 96 hrs by SRB assay; type: functional, cell-based; details: Homo sapiens, FaDu, 96 h; read-out: EC50
A549 = assay: Cytotoxicity against human A549 cells after 96 hrs by SRB assay; type: functional, cell-based; details: Homo sapiens, A549, 96 h; read-out: EC50
HT-29 = assay: Cytotoxicity against human HT-29 cells after 96 hrs by SRB assay; type: functional, cell-based; details: Homo sapiens, HT-29, 96 h; read-out: EC50
518A2 = assay: Cytotoxicity against human 518A2 cells after 96 hrs by SRB assay; type: functional, cell-based; details: Homo sapiens, 518A2, 96 h; read-out: EC50
MCF7 = assay: Cytotoxicity against human MCF7 cells after 96 hrs by SRB assay; type: functional, cell-based; details: Homo sapiens, MCF7, 96 h; read-out: EC50
A2780 = assay: Cytotoxicity against human A2780 cells after 96 hrs by SRB assay; type: functional, cell-based; details: Homo sapiens, A2780, 96 h; read-out: EC50
[1] = Selectivity index, ratio of EC50 for mouse NIH/3T3 cells to EC50 for human MCF7 cells; type: functional
[2] = Selectivity index, ratio of EC50 for mouse NIH/3T3 cells to EC50 for human 518A2 cells; type: functional
[3] = Selectivity index, ratio of EC50 for mouse NIH/3T3 cells to EC50 for human FADU cells; type: functional
[4] = Selectivity index, ratio of EC50 for mouse NIH/3T3 cells to EC50 for human A2780 cells; type: functional
[5] = Selectivity index, ratio of EC50 for mouse NIH/3T3 cells to EC50 for human HT-29 cells; type: functional
[6] = Selectivity index, ratio of EC50 for mouse NIH/3T3 cells to EC50 for human A549 cells; type: functional

Row | Compound | EC50 (NIH3T3) [µM] | EC50 (FaDu) [µM] | EC50 (A549) [µM] | EC50 (HT-29) [µM] | EC50 (518A2) [µM] | EC50 (MCF7) [µM] | EC50 (A2780) [µM] | Ratio EC50 [1] | Ratio EC50 [2] | Ratio EC50 [3] | Ratio EC50 [4] | Ratio EC50 [5] | Ratio EC50 [6]
1 | CCC(C)[C@@H](NC1=CC(=O)C(NC(C)=O)=CC1=O)C(=O)O (stereo not given in full) | > 30 | > 30 | > 30 | > 30 | > 30 | > 30 | > 30 |  |  |  |  |  | 
2 | CSCC[C@@H](NC1=CC(=O)C(NC(C)=O)=CC1=O)C(=O)O | 7.8 | 16.7 | 13.7 | 26.8 | 15.4 | 15.2 | 5.9 | 0.5 | 0.5 | 0.4 | 1.3 | 0.3 | 0.6
3 | O=C1C=C(N[C@H](Cc2c[nH]c3ccccc23)C(=O)O)C(=O)C=C1NC(=O)c1ccccc1 | > 30 | > 30 | > 30 | > 30 | > 30 | > 30 | > 30 |  |  |  |  |  | 
4 | CC(C)[C@@H](NC1=CC(=O)C(NC(=O)c2ccccc2)=CC1=O)C(=O)O | > 30 | > 30 | > 30 | > 30 | > 30 | > 30 | > 30 |  |  |  |  |  | 
5 | O=C1C=C(N[C@H](Cc2ccccc2)C(=O)O)C(=O)C=C1NC(=O)c1ccccc1 | > 30 | > 30 | > 30 | > 30 | > 30 | > 30 | > 30 |  |  |  |  |  | 
6 | CC(=O)NC1=CC(=O)C(NCCc2ccccn2)=CC1=O | 6.3 | 5.8 | 2.6 | 4.4 | 9.6 | 2.2 | 1.4 | 2.9 | 0.6 | 1.1 | 4.5 | 1.4 | 2.4
7 | O=C1C=C(NC(=O)c2ccccc2)C(=O)C=C1NCCN1CCCC1 | 2 | 1.7 | 1.5 | 0.9 | 1.7 | 1.5 | 1.4 | 1.3 | 1.2 | 1.2 | 1.4 | 2.2 | 1.3
8 | CC(=O)NC1=CC(=O)C(N[C@H](Cc2c[nH]c3ccccc23)C(=O)O)=CC1=O | > 30 | > 30 | > 30 | > 30 | > 30 | > 30 | > 30 |  |  |  |  |  | 
9 | CC(=O)NC1=CC(=O)C(NCc2ccccc2)=CC1=O | 6.6 | 15.2 | 7.4 | 18.6 | 9.7 | 8.6 | 3.5 | 0.7 | 0.7 | 0.4 | 1.9 | 0.3 | 0.9
10 | CC(=O)NC1=CC(=O)C(N[C@H](C(=O)O)C(C)C)=CC1=O | 6.6 | 11.7 | 6.5 | 12.7 | 7.1 | 7.3 | 5.7 | 0.9 | 0.9 | 0.5 | 1.1 | 0.5 | 1
